Measured values taken from patent US11746116B2, “Antibiotic resistance breakers” (KING'S COLLEGE LONDON, priority 2017, dated 2023).
In brackets after ≈: the same amount, converted by molar mass. Several values for one entry are separate records, joined by “and”; a condition that tells them apart may be missing. Equal values may be shown once. Read-outs that look alike come from different tables or passages of the source.

Assays:
SA4 = assay: MIC, extended Gram-positive panel; format: cell-based, S. aureus; details: S. aureus SA4; gyrA, 84:S => L; grlA, 80:S => F
Ab17978 = assay: MIC, microdilution broth method; format: cell-based; details: for MIC, Ab17978: ESKAPE panel, Gram-negative
EF2 = assay: MIC, extended Gram-positive panel; format: cell-based, E.faecium; details: E.faecium EF2; in µg/mL
PA01 = assay: MIC, microdilution broth method; format: cell-based, Pseudomonas aeruginosa; details: for MIC, PA01: ESKAPE panel, Gram-negative
SA1 = assay: MIC, extended Gram-positive panel; format: cell-based, S. aureus; details: S. aureus SA1; gyrA, 84:S => L; grlA, 80:S => F
SA9 = format: cell-based, S. aureus; details: S. aureus SA9; gyrA, 84:S => L; grlA, 80:S => F
M6 = assay: MIC, microdilution broth method; format: cell-based; details: for MIC, M6: ESKAPE panel, Gram-negative
SA7 = assay: MIC, extended Gram-positive panel; format: cell-based, S. aureus; details: S. aureus SA7; gyrA, 84:S => L; grlA, 80:S => F
SE1 = format: cell-based, S. epidermidis; details: S. epidermidis SE1; in µg/mL
SH1 = assay: MIC, extended Gram-positive panel; format: cell-based, S. haemolyticus; details: S. haemolyticus SH1
SA5 = format: cell-based, S. aureus; details: S. aureus SA5; gyrA, 84:S => L; grlA, 80:S => F
SA8 = assay: MIC, extended Gram-positive panel; format: cell-based, S. aureus; details: S. aureus SA8; gyrA, 84:S => L; grlA, 80:S => F
SA3 = format: cell-based, S. aureus; details: S. aureus SA3; gyrA, 84:S => L; grlA, 80:S => F
VRE12201 = assay: MIC, microdilution broth method; format: cell-based, Enterococcus faecalis; details: for MIC, VRE12201: ESKAPE panel, Gram-positive
EF1 = assay: MIC, extended Gram-positive panel; format: cell-based, E.faecalis; details: E.faecalis EF1
SA2 = assay: MIC, extended Gram-positive panel; format: cell-based, S. aureus; details: S. aureus SA2
MSSA9144 = assay: MIC, microdilution broth method; format: cell-based, Staphylococcus aureus; details: for MIC, MSSA9144: ESKAPE panel, Gram-positive
PA13437 = assay: MIC, microdilution broth method; format: cell-based; details: for MIC, PA13437: ESKAPE panel, Gram-negative
SA6 = assay: MIC, extended Gram-positive panel; format: cell-based, S. aureus; details: S. aureus SA6; gyrA, 84:S => V; grlA, 80:S => F
VSE775 = assay: MIC, microdilution broth method; format: cell-based, Enterococcus faecalis; parameters: MIC, VSE775: unit not given beside the values; details: for MIC, VSE775: ESKAPE panel, Gram-positive
EMRSA16 = assay: MIC, microdilution broth method; format: cell-based, Staphylococcus aureus; details: for MIC, EMRSA16: in µg/mL
EC12923 = assay: MIC, microdilution broth method; format: cell-based; details: for MIC, EC12923: ESKAPE panel, Gram-negative, in µg/mL
VRE12204 = assay: MIC, microdilution broth method; format: cell-based, Enterococcus faecium; details: ESKAPE panel, Gram-positive; in µg/mL
KP13368 = assay: MIC, microdilution broth method; format: cell-based; details: for MIC, KP13368: ESKAPE panel, Gram-negative
AYE = assay: MIC, microdilution broth method; format: cell-based, Acinetobacter baumannii; details: for MIC, AYE: ESKAPE panel, Gram-negative, in µg/mL
EMRSA15 = assay: MIC, microdilution broth method; format: cell-based, Staphylococcus aureus; details: for MIC, EMRSA15: in µg/mL
[1] = system: Staphylococcus aureus ATCC29213; assay: Murine thigh infection model, thigh bacterial burden; format: in vivo; details: individual thigh samples, ICR mice

| SMILES | MIC (SA4) [µg/mL] | MIC, VSE775 (VSE775) | MIC, Ab17978 (Ab17978; in µg/mL) | MIC, EMRSA16 (EMRSA16; ESKAPE panel, Gram-positive) | MIC, EC12923 (EC12923) | MIC, PA01 (PA01; in µg/mL) | MIC, M6 (M6; in µg/mL) | MIC, VRE12204 (VRE12204) | MIC, KP13368 (KP13368) [µg/mL] | MIC, VRE12201 (VRE12201; in µg/mL) | MIC, AYE (AYE) | MIC, MSSA9144 (MSSA9144; in µg/mL) | MIC, PA13437 (PA13437) [µg/mL] | MIC, EMRSA15 (EMRSA15; ESKAPE panel, Gram-positive) | other results |
| --- | --- | --- | --- | --- | --- | --- | --- | --- | --- | --- | --- | --- | --- | --- | --- |
| CCn1cc(C(=O)O)c(=O)c2cc(F)c(N3CCNCC3)cc21 [NOR] | 64 (≈ 200 µM) |  |  |  |  |  |  |  |  |  |  |  |  |  |  |
| O=C(O)c1cn(C2CC2)c2cc(N3CCN(Cc4cccc5ccccc45)CC3)c(F)cc2c1=O [ML-77-005] | 2 (≈ 4.24 µM) |  |  |  |  |  |  |  |  |  |  |  |  |  | MIC (Ab17978; Ab17978, +PMBN): −.12-0.25; MIC (Ab17978; Ab17978, Normal (no PMBN), in µg/mL): 4; MIC (EF2): 2; MIC (PA01; PA01, +PMBN, in µg/mL): <0.12-0.25; MIC (SA1): 2 µg/mL (≈ 4.24 µM); MIC (SA9): 2 µg/mL (≈ 4.24 µM); MIC (M6; M6, +PMBN, in µg/mL): 0.5; MIC (M6; M6, Normal (no PMBN), in µg/mL): 32-64; MIC (SA7): 2 µg/mL (≈ 4.24 µM); MIC (SE1): 0.25-2; MIC (SH1): 4 µg/mL (≈ 8.48 µM); MIC (SA5): 2 µg/mL (≈ 4.24 µM); MIC (SA8): 2 µg/mL (≈ 4.24 µM); MIC (SA3): 2 µg/mL (≈ 4.24 µM); MIC (VRE12201; VRE12201, in µg/mL): 0.5; MIC (EF1): 2 µg/mL (≈ 4.24 µM); MIC (SA2): 0.5 µg/mL (≈ 1.06 µM); MIC (MSSA9144; MSSA9144, in µg/mL): 0.25-8; MIC (PA13437; PA13437, +PMBN): 32 µg/mL (≈ 67.9 µM); MIC (SA6): 2 µg/mL (≈ 4.24 µM) |
| C[C@H]1COc2c(N3CC[C@@H](N(C)C4CC4)C3)c(F)cc3c(=O)c(C(=O)O)cn1c23 [KSN-L36, (S)-10-((R)-3-(cyclopropyl(methyl)amino)pyrrolidin-1-yl)-9-fluoro-3-methyl-7-oxo-2,3-dihydro-7H-[1,4]oxazino[2,3,4-ij]quinoline-6-carboxylic acid] |  | 4 | 0.5-1 | 32 | 0.5-1 | 16 | 2-4 | 8 | 32 (≈ 79.7 µM) | 2 | 64 | 0.25-0.5 | > 64 | 32 |  |
| C[C@H]1COc2c(N3CC[C@H](Nc4cc(NC5CC5)ncn4)C3)c(F)cc3c(=O)c(C(=O)O)cn1c23 [KSN-L21, (S)-10-((S)-3-((6-(cyclopropylamino)pyrimidin-4-yl)amino)pyrrolidin-1-yl)-9-fluoro-3-methyl-7-oxo-2,3-dihydro-7H-[1,4]oxazino[2,3,4-ij]quinoline-6-carboxylic acid] |  | 4 | 2 | >32 | 0.5 | >32 | 16 | 16 | > 32 | 1 | >32 | 0.5 | > 32 | 32 |  |
| C[C@H]1COc2c(N3CC[C@@H](Nc4ncc(F)cn4)C3)c(F)cc3c(=O)c(C(=O)O)cn1c23 [KSN-L34, (S)-9-fluoro-10-((R)-3-((5-fluoropyrimidin-2-yl)amino)pyrrolidin-1-yl)-3-methyl-7-oxo-2,3-dihydro-7H-[1,4]oxazino[2,3,4-ij]quinoline-6-carboxylic acid] |  | ≤0.125 | ≤0.125 | 1 | 0.125 | 4 | 2 | 1 | 32 (≈ 72.2 µM) | ≤0.125 | 4 | ≤0.125 | > 32 | 0.5 | MIC (VSE775; Enterococcus faecalis, Enterococcus (VRE775), Gram-Positive, read-out: MIC): ≤ 0.125 µg/mL; MIC (Ab17978; Acinetobacter baumannii (AB17978), Gram-Negative, read-out: MIC): ≤ 0.125 µg/mL; MIC, EMRSA16 (EMRSA16; EMRSA16 (Table 16, role of the terminal pyrimidine ring)): 1; MIC (EMRSA16; Staphylococcus aureus (EMRSA16), Gram-Positive (Table 14), read-out: MIC): 1 µg/mL (≈ 2.26 µM); MIC (EC12923; Escherichia coli (EC12923), Gram-Negative, read-out: MIC): 0.125 µg/mL (≈ 0.282 µM); MIC (PA01; Pseudomonas aeruginosa (PA01), Gram-Negative, read-out: MIC): 4 µg/mL (≈ 9.02 µM); MIC (M6; Klebsiella pneumoniae (M6), Gram-Negative, read-out: MIC): 2 µg/mL (≈ 4.51 µM); MIC (KP13368; Klebsiella pneumoniae (KP13368), Gram-Negative, read-out: MIC): 32 µg/mL (≈ 72.2 µM); MIC (VRE12201; Enterococcus faecalis, Enterococcus (VRE12201), Gram-Positive, read-out: MIC): ≤ 0.125 µg/mL; MIC (AYE; Acinetobacter baumannii (AYE), Gram-Negative, read-out: MIC): 4 µg/mL (≈ 9.02 µM); MIC (MSSA9144; Staphylococcus aureus (MSSA9144), Gram-Positive, read-out: MIC): ≤ 0.125 µg/mL; MIC, EMRSA15 (EMRSA15; EMRSA15 (Table 16, role of the terminal pyrimidine ring)): 0.5; MIC (EMRSA15; Staphylococcus aureus, Staphylococcus aureus (EMRSA15), Gram-Positive (Table 14), read-out: MIC): 0.5 µg/mL (≈ 1.13 µM) |
| C[C@H]1COc2c(N3CCC(Nc4ncccn4)C3)c(F)cc3c(=O)c(C(=O)O)cn1c23 (stereo partly drawn) [KSN-82-L7, (3S)-9-fluoro-3-methyl-7-oxo-10-(3-(pyrimidin-2-ylamino)pyrrolidin-1-yl)-2,3-dihydro-7H-[1,4]oxazino[2,3,4-ij]quinoline-6-carboxylic acid] |  | 0.5 | 0.5 | 4 | 1 | 8-32 | 4-8 | 4 | 16 (≈ 37.6 µM) | 0.5 | 16-32 | 0.06 | > 32 | 4 | Bacterial burden data ([1]; 20 mg/kg): 6.42E+02 CFU/g and 1.94E+03 CFU/g and 1.60E+03 CFU/g and 3.05E+03 CFU/g and 1.51E+03 CFU/g and 1.18E+04 CFU/g and 2.48E+03 CFU/g and 3.92E+03 CFU/g and 5.78E+02 CFU/g and 1.80E+03 CFU/g; Bacterial burden data ([1]; 50 mg/kg): 5.94E+02 CFU/g and 2.63E+03 CFU/g and 2.00E+03 CFU/g and 1.44E+03 CFU/g and 9.34E+02 CFU/g and 1.14E+03 CFU/g and 2.58E+03 CFU/g and 1.98E+03 CFU/g and 5.78E+02 CFU/g and 1.70E+03 CFU/g |
